Values quoted from earlier work as cited in patent US12213954B2, “Colchicine solution” (PHARMA-DATA RESEARCH AND D[…] MEMBER S.A., priority 2021, dated 2025).

Conditions: pure colchicine

## COc1cc2c(c(OC)c1OC)-c1ccc(OC)c(=O)cc1[C@@H](NC(C)=O)CC2 [colchicine, (S)—N-(5,6,7,9-tetrahydro-1,2,3,10-tetramethoxy-9-oxo-benzo[a]heptalene-7-yl)acetamide]
  solubility in water, ethanol and chloroform (in words): well soluble
